Patent publication US20130116241A1, “NOVEL INHIBITOR COMPOUNDS OF PHOSPHODIESTERASE TYPE 10A” (AbbVie Inc., priority 2011, published 2013)
pIC50: −log10 of the molar value. Where a name gives a salt, the structure may show the parent alone. Read-outs that look alike come from different tables or passages of the source.

Target: human PDE10A (UniProt Q9Y233)
Assay: Measurement of PDE activity (recombinant enzyme, HTRF cAMP kit)
Type: biochemical
Details: Table 1, substrate 20 nM for PDE10, 60 minutes at 29 C
Method in brief: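 HTRF detection of cAMP left after hydrolysis, expressed as percent of uninhibited control to derive IC50. Reaction: serially diluted inhibitor mixed with recombinant enzyme, started with 20 nM cAMP, 60 min at 29 °C in Tris-HCl pH 7.5 buffer containing MgCl2 and BSA.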

Chain of human PDE10A (Q9Y233 290-1055 limits assumed): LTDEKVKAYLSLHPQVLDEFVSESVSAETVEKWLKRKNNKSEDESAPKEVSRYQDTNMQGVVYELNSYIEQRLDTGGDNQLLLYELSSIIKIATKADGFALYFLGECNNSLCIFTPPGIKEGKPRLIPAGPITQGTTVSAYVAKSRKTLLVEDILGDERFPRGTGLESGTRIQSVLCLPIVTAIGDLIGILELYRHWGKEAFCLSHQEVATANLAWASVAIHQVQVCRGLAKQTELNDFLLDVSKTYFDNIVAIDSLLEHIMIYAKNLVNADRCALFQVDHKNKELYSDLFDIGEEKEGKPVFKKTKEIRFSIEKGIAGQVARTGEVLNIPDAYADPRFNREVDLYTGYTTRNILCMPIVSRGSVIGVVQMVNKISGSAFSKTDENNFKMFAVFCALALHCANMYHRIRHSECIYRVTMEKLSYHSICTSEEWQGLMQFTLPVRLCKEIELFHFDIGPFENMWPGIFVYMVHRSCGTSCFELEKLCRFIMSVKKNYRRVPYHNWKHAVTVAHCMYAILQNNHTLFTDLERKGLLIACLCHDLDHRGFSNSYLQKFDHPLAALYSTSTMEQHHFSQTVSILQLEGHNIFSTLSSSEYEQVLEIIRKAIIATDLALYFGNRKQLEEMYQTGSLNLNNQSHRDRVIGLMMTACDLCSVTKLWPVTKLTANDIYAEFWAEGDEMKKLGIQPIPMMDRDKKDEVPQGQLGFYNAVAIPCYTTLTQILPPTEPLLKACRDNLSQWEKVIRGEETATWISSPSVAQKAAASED

SMILES	pIC50 (read-out: IC50)	pIC50
COc1ccc2nc(/C=C/n3ccc4scc(-c5ccncc5)c4c3=O)ccc2c1 [compound 410]	> 7.00	
O=c1c2ccccc2c(-c2cccnc2)nn1CCc1ccc2ccccc2n1 [compound 399, 4-(pyridin-3-yl)-2-[2-(quinolin-2-yl)ethyl]phthalazin-1(2H)-one]	> 7.00	
Cc1cc(-c2csc3cnn(CCc4ccc5ccccc5n4)c(=O)c23)ccn1 [Example 51, 3-(2-methylpyridin-4-yl)-5-[2-(quinolin-2-yl)ethyl]thieno[2,3-d]pyridazin-4(5H)-one]	> 7.00	
O=c1c2c(-c3ccc(F)cc3Cl)cccc2cnn1CCc1ccc2ccccc2n1 [Example 143, 8-(2-Chloro-4-fluorophenyl)-2-[2-(quinolin-2-yl)ethyl]phthalazin-1(2H)-one]	6.30 to 6.70	
O=c1c2c(-c3ccncc3)csc2ccn1C1CC1c1ccc2ccccc2n1 (single isomer, unassigned) [293b]	> 7.00	
O=c1c2c(-c3ccncc3)csc2cnn1CCc1cn2ccc(F)cc2n1 [Example 97, 5-[2-(7-Fluoroimidazo[1,2-a]pyridin-2-yl)ethyl]-3-(pyridin-4-yl)thieno[2,3-d]pyridazin-4(5H)-one]	> 7.00	
O=c1c2c(N3CCCC4(CC3)CNCCO4)cccc2cnn1CCc1cn2ccccc2n1 (centres unmarked) [compound 330, dihydrochloride]	6.30 to 6.70	
O=c1c2c(C3=CCNCC3)csc2ccn1CCc1ccc2ccccc2n1 [Example 213, 5-(2-(Quinolin-2-yl)ethyl)-3-(1,2,3,6-tetrahydropyridin-4-yl)thieno[3,2-c]pyridin-4(5H)-one hydrochloride]	6.30 to 6.70	
O=C1Cc2ccc(-c3cccc4cnn(CCc5cn6ccccc6n5)c(=O)c34)cc2N1 [Example 171, 2-[2-(Imidazo[1,2-a]pyridin-2-yl)ethyl]-8-(2-oxo-2,3-dihydro-1H-indol-6-yl)phthalazin-1(2H)-one]	> 7.00	
O=c1c2c(-c3ccnnc3)cccc2ccn1C1CC1c1ccc2ccccc2n1 (single isomer, unassigned) [Example 236, anti (−) 8-(pyridazin-4-yl)-2-(2-(quinolin-2-yl)cyclopropyl)isoquinolin-1(2H)-one]	> 7.00	
O=c1c2c(-c3cncnc3)csc2cnn1C1CC1c1ccc2ccccc2n1 (centres unmarked) [compound 290]	> 7.00	
O=c1c2c(N3CCC4(COC4)C3)cccc2ccn1C1CC1c1ccc2ccccc2n1 (single isomer, unassigned) [Example 258, anti (−) 2-(2-(quinolin-2-yl)cyclopropyl)-8-(2-oxa-6-azaspiro[3.4]octan-6-yl)isoquinolin-1(2H)-one]	> 7.00	
COc1ccc(-c2cccc3cnn(CCc4ccc5ccccc5n4)c(=O)c23)cc1 [Example 104, 8-(4-Methoxyphenyl)-2-[2-(quinolin-2-yl)ethyl]phthalazin-1(2H)-one]	6.70 to 7.00	
O=c1c2c(-c3ccncc3)cccc2ccn1C1CC1c1ccc2ccccc2n1 (single isomer, unassigned; (-)) [Example 222b, (−) 8-(pyridin-4-yl)-2-(2-(quinolin-2-yl)cyclopropyl)isoquinolin-1(2H)-one]	> 7.00	
O=c1c2c(-c3ccncc3)coc2ccn1CCc1cn2ccccc2n1 [Example 230, 5-(2-(Imidazo[1,2-a]pyridin-2-yl)ethyl)-3-(pyridin-4-yl)furo[3,2-c]pyridin-4(5H)-one hydrochloride]	6.70 to 7.00	
O=c1c2c(C#Cc3ccncc3)csc2cnn1CCc1ccc2ccccc2n1 [compound 320, hydrochloride]	6.30 to 6.70	
Cc1noc(C)c1-c1csc2cnn(CCc3ccc4ccccc4n3)c(=O)c12 [Example 48, 3-(3,5-dimethyl-1,2-oxazol-4-yl)-5-[2-(quinolin-2-yl)ethyl]thieno[2,3-d]pyridazin-4(5H)-one]	> 7.00	
COc1ccc(-c2cccc3cnn(CCc4ccc5ccccc5n4)c(=O)c23)cc1OC [Example 148, 8-(3,4-Dimethoxyphenyl)-2-[2-(quinolin-2-yl)ethyl]phthalazin-1(2H)-one]	6.70 to 7.00	
O=c1c2c(-c3ccc(F)cc3Cl)csc2cnn1CCc1ccc2ccccc2n1 [Example 64, 3-(2-chloro-4-fluorophenyl)-5-[2-(quinolin-2-yl)ethyl]thieno[2,3-d]pyridazin-4(5H)-one]	6.30 to 6.70	
O=c1c2c(N3C4CCC3COC4)cccc2ccn1C1CC1c1ccc2ccccc2n1 [Example 263, anti 8-((1R,5S)-3-oxa-8-azabicyclo[3.2.1]octan-8-yl)-2-(2-(quinolin-2-yl)cyclopropyl)isoquinolin-1(2H)-one]		> 7.00
O=c1c2c(-c3ccncc3)cccc2ccn1/C=C/c1ncc2ccccc2n1 [compound 411, 8-(pyridin-4-yl)-2-[(E)-2-(quinazolin-2-yl)ethenyl]isoquinolin-1(2H)-one]	6.70 to 7.00	
CC(C)Cn1cc(-c2cccc3cnn(CCc4ccc5ccccc5n4)c(=O)c23)cn1 [Example 140, 8-[1-(2-Methylpropyl)-1H-pyrazol-4-yl]-2-[2-(quinolin-2-yl)ethyl]phthalazin-1(2H)-one]	6.30 to 6.70	
O=c1c2c(N3CC4CCOC4C3)cccc2cnn1CCc1cn2ccccc2n1 (centres unmarked) [compound 374, hydrochloride]	6.30 to 6.70	
O=c1c2c(-c3ccnnc3)csc2ccn1C1CC1c1ccc2ccccc2n1 (centres unmarked) [compound 285]	> 7.00	
O=c1c2c(-c3ccc(F)c(F)c3)cccc2cnn1CCc1ccc2ccccc2n1 [Example 149, 8-(3,4-difluorophenyl)-2-[2-(quinolin-2-yl)ethyl]phthalazin-1(2H)-one]	6.30 to 6.70	
O=c1c2c(NC3CCOC3)cccc2cnn1CCc1cn2ccccc2n1 (centres unmarked) [compound 391, 2-[2-(imidazo[1,2-a]pyridin-2-yl)ethyl]-8-(tetrahydrofuran-3-ylamino)phthalazin-1(2H)-one]	> 7.00	
O=c1c2c(-c3ccnc(C(F)(F)F)c3)cccc2cnn1CCc1cn2ccccc2n1 [compound 348, 2-[2-(imidazo[1,2-a]pyridin-2-yl)ethyl]-8-[2-(trifluoromethyl)pyridin-4-yl]phthalazin-1(2H)-one]	6.70 to 7.00	
COc1ncccc1-c1cccc2cnn(CCc3ccc4ccccc4n3)c(=O)c12 [Example 125, 8-(2-Methoxypyridin-3-yl)-2-[2-(quinolin-2-yl)ethyl]phthalazin-1(2H)-one]	6.30 to 6.70	

Further lines, with some results ahead:

pIC50 (read-out: IC50)	SMILES	pIC50
> 7.00	O=c1c2c(-c3cncnc3)cccc2c(Cl)cn1C1CC1c1ccc2ccccc2n1 (single isomer, unassigned) [Example 276, anti (−)-4-chloro-8-(pyrimidin-5-yl)-2-(2-(quinolin-2-yl)cyclopropyl)isoquinolin-1(2H)-one]	
6.30 to 6.70	O=c1c2c(-c3cccs3)cccc2cnn1CCc1ccc2ccccc2n1 [Example 119, 2-[2-(Quinolin-2-yl)ethyl]-8-(thiophen-2-yl)phthalazin-1(2H)-one]	
> 7.00	O=c1c2c(N3CCC(O)CC3)cccc2ccn1[C@@H]1C[C@H]1c1ccc2ccccc2n1 (relative stereo) [Example 253, anti 8-(4-hydroxypiperidin-1-yl)-2-(2-(quinolin-2-yl)cyclopropyl)isoquinolin-1(2H)-one (2E)-but-2-enedioate]	
> 7.00	O=c1c2c(-c3ccncc3)cccc2c(Br)nn1CCc1cn2ccccc2n1 [compound 370, 4-bromo-2-[2-(imidazo[1,2-a]pyridin-2-yl)ethyl]-8-(pyridin-4-yl)phthalazin-1(2H)-one]	
> 7.00	O=c1c2c(-c3cccnc3)csc2ccn1CCc1ccc2cc(F)ccc2n1 [compound 308, hydrochloride]	
6.30 to 6.70	O=c1c2c(-c3ccncc3)csc2cnn1CCc1ccc2ccc(F)cc2n1 [compound 322, 5-[2-(7-fluoroquinolin-2-yl)ethyl]-3-(pyridin-4-yl)thieno[2,3-d]pyridazin-4(5H)-one]	
> 7.00	O=c1c2c(-c3cncc(F)c3)cccc2cnn1CCc1ccc2ccccc2n1 [Example 137, 8-(5-Fluoropyridin-3-yl)-2-[2-(quinolin-2-yl)ethyl]phthalazin-1(2H)-one]	
6.70 to 7.00	O=c1c2c(-c3cc(F)cc(F)c3)csc2cnn1CCc1ccc2ccccc2n1 [Example 80, 3-(3,5-difluorophenyl)-5-[2-(quinolin-2-yl)ethyl]thieno[2,3-d]pyridazin-4(5H)-one]	
> 7.00	O=c1c2c(-c3cccc(F)c3F)cccc2cnn1CCc1ccc2ccccc2n1 [Example 147, 8-(2,3-Difluorophenyl)-2-[2-(quinolin-2-yl)ethyl]phthalazin-1(2H)-one]	
> 7.00	O=c1c2cccc(-c3ccncc3)c2ccn1C1CC1c1ccc2ccccc2n1 (centres unmarked) [compound 297]	
> 7.00	O=c1c2c(-c3ccncc3)ccnc2cnn1[C@@H]1C[C@H]1c1ccc2ccccc2n1 (relative stereo) [Example 277, anti 4-(pyridin-4-yl)-6-(2-(quinolin-2-yl)cyclopropyl)pyrido[2,3-d]pyridazin-5(6H)-one]	
> 7.00	Cc1cc2ccccc2nc1/C=C/n1ccc2scc(-c3ccncc3)c2c1=O [compound 413, 5-[(E)-2-(3-methylquinolin-2-yl)ethenyl]-3-(pyridin-4-yl)thieno[3,2-c]pyridin-4(5H)-one]	
> 7.00	CC1(CNc2cccc3cnn(CCc4cn5ccccc5n4)c(=O)c23)COC1 [compound 403]	
6.70 to 7.00	Cc1n[nH]c(C)c1-c1cccc2cnn(CCc3ccc4ccccc4n3)c(=O)c12 [Example 121, 8-(3,5-Dimethyl-1H-pyrazol-4-yl)-2-[2-(quinolin-2-yl)ethyl]phthalazin-1(2H)-one]	
> 7.00	O=c1c2c(-c3ccncc3)csc2cnn1CCc1ccc2ccccc2n1 [Example 3, 3-(Pyridin-4-yl)-5-[2-(quinolin-2-yl)ethyl]thieno[2,3-d]pyridazin-4(5H)-one]	
> 7.00	Cn1nccc1-c1cccc2c(=O)n(CCc3ccc4ccccc4n3)ncc12 [Example 194, 5-(1-Methyl-1H-pyrazol-5-yl)-2-[2-(quinolin-2-yl)ethyl]phthalazin-1(2H)-one]	
